Results as given in patent publication US11384381B2, “Reaction accelerating agent” (Kikkoman Corporation, priority 2016, dated 2022).

How the values were obtained:
[1] = system: sarcosine oxidase (SOD-TE); assay: Acceleration of sarcosine detection reaction with small amount of sarcosine oxidase (Example 11); assay type: biochemical; details: 0.04% (w/v) compound, 12.3 U/ml SOD-TE; for effect of accelerating sarcosine detection reaction: versus not added; for Degree of progression of reaction (%) after 7.5 minutes / Degree of progression of reaction (%) after 10 minutes: sarcosine detection reaction, ΔA/ΔA100%; for Degree of progression of reaction (%) after 7.5 minutes: 2.5 minutes after addition of second reagent, not added: 60; for Degree of progression of reaction (%) after 10 minutes: 5 minutes after addition of second reagent, not added: 82
Protocol: Next, in this Example, the degree of acceleration of sarcosine detection reaction by the compound of the present invention was determined using a small amount of sarcosine oxidase.
A reagent for sarcosine measurement having the following composition was prepared, and the measurement of sarcosine was carried out using Bio Majesty JCA-BM1650 (manufactured by JEOL Ltd.).
32 μM sarcosine (manufactured by Wako Pure Chemical Industries, Ltd.)
(§1) 30 mM MOPS-NaOH buffer solution, pH 8.0
0.2% (v/v) NP-10 (manufactured by HELM)
(§2) 10 U/ml peroxidase PEO-301 (Toyobo Co., Ltd.)
(§3) 0.023 mM 10-(carboxymethylaminocarbonyl)-3,7-bis(dimethylamino)phenothiazine sodium
(§4) (DA-67, manufactured by Wako Pure Chemical Industries, Ltd.)
(§5) 0.04% (w/v) of the compound of Comparative Example 2, any one compound of the present invention, or compound-free (Comparative Example 1) ion-exchange water as shown in Table 1
(§6) 10 mM MOPS-NaOH buffer solution, pH 8.0
12.3 U/ml SOD-TE (manufactured by Kikkoman Biochemifa Company)
8 μl of the sample was added to […] of the first reagent-D, and the mixture was incubated at 37° C. for 5 minutes. Then, 24 μl of the second reagent-H was added thereto, and the quantitative reaction of hydrogen peroxide resulting from the oxidation of sarcosine was allowed to progress at 37° C. for 5 minutes. The absorbance (A694 and A751) of the reaction solution for light at wavelengths of 694 nm and 751 nm was measured over time for 10 minutes after the mixing of the sample with the first reagent-D to determine the value of subtraction of A751 from A694, i.e., the value A694/751. Subsequently, ΔA was calculated by subtracting, from A694/751, the value of (104/128) times A694/751 4.8 minutes after the mixing of the sample with the first reagent-D. Incidentally, 5 minutes after the mixing of the sample with the first reagent-D represents the time immediately before the addition of the second reagent-H.
Next, ΔA calculated in this Example was divided by ΔA100% defined in Example 10 to calculate the degree of progression of sarcosine detection reaction. The degree of progression of sarcosine detection reaction 7.5 and 10 minutes after the mixing of the sample with the first reagent-D (in other words, 2.5 and 5 minutes after the addition of the second reagent-H) is shown in Table 8.

[2] = system: fructosyl amino acid oxidase (FAOD-E); assay: Fructosyl valine detection reaction completed with excess fructosyl amino acid oxidase (Example 8); assay type: biochemical; details: 0.04% (w/v) compound, 21.4 U/ml FAOD-E (excess), 32 μM fructosyl valine, pH 8.0, 37° C.; for ΔA9 min: change in A694-A751 9 minutes after mixing; for ΔA10 min: change in A694-A751 10 minutes after mixing, defined as ΔA100%
Protocol: In this Example, the amount of change in absorbance is determined when the detection reaction of the substrate fructosyl valine was completed using an excess amount of fructosyl amino acid oxidase (FAOD-E), which is an oxidase.
A reagent for fructosyl valine measurement having the following composition was prepared, and the measurement of fructosyl valine using fructosyl amino acid oxidase was carried out using Bio Majesty JCA-BM 1650 (manufactured by JEOL Ltd.).
32 μM fructosyl valine (manufactured by Kikkoman Biochemifa Company)
as §1
0.2% (v/v) NYMEEN F-215 (manufactured by NOF Corp.)
as §2, §3, §4, §5, §6
21.4 U/ml FAOD-E (manufactured by Kikkoman Biochemifa Company)
8 μl of the sample was added to 96 μl of the first reagent-C, and the mixture was incubated at 37° C. for 5 minutes. Then, 24 μl of the second reagent-E was added thereto, and the quantitative reaction of hydrogen peroxide resulting from the oxidation of fructosyl valine was allowed to progress at 37° C. for 5 minutes. The absorbance ([…] and A751) of the reaction solution for light at wavelengths of 694 nm and 751 nm was measured over time for 10 minutes after the mixing of the sample with the first reagent-C to determine the value of subtraction of A751 from A694, i.e., the value A694/751. Subsequently, ΔA was calculated by subtracting, from A694/751, the value of (104/128) times A694/751 4.8 minutes after the mixing of the sample with the first reagent-C. Incidentally, 4.8 minutes after the mixing of the sample with the first reagent-C represents the time immediately before the addition of the second reagent-E. ΔA 9 minutes and 10 minutes after the mixing of the diluted sample with the first reagent-C (ΔA9min and ΔA10min) are shown in Table 5.
In other words, it can be recognized that the quantitative reaction of fructosyl valine, i.e., the quantitative reaction of hydrogen peroxide resulting from the oxidation of fructosyl valine, was completed in 10 minutes after the mixing of the diluted sample with the first reagent-C. Accordingly, in Examples 8 and 9, ΔA10min in each Comparative Example or the present invention was defined as ΔA when 100% of the quantitative reaction of HbA1c progressed under each condition (ΔA100%).

COc1cc(N=Nc2ccc(N)cc2)c(C)cc1N [Disperse Diazo Black 3BF]
effect of accelerating sarcosine detection reaction [1]: effect of accelerating sarcosine detection reaction
Degree of progression of reaction (%) after 7.5 minutes [1]: 63%
Degree of progression of reaction (%) after 10 minutes [1]: 84%
ΔA9 min [2]: 0.062
ΔA10 min [2]: 0.061

O=C([O-])c1cc(N=Nc2cccc([N+](=O)[O-])c2)ccc1O.[Na+] [Alizarin Yellow GG]
effect of accelerating sarcosine detection reaction [1]: effect of accelerating sarcosine detection reaction
Degree of progression of reaction (%) after 7.5 minutes [1]: 64%
Degree of progression of reaction (%) after 10 minutes [1]: 86%
ΔA9 min [2]: 0.044
ΔA10 min [2]: 0.046

COc1cc(N=Nc2cccc(S(=O)(=O)[O-])c2)ccc1NC(=O)Nc1ccc(N=Nc2ccc(O)c(C(=O)[O-])c2)cc1.[Na+].[Na+] [Direct Yellow 44]
effect of accelerating sarcosine detection reaction [1]: effect of accelerating sarcosine detection reaction
Degree of progression of reaction (%) after 7.5 minutes [1]: 68%
Degree of progression of reaction (%) after 10 minutes [1]: 89%

Xylene Fast Yellow 2G
effect of accelerating sarcosine detection reaction [1]: effect of accelerating sarcosine detection reaction
Degree of progression of reaction (%) after 7.5 minutes [1]: 64%
Degree of progression of reaction (%) after 10 minutes [1]: 86%

O=C([O-])c1cc(N=Nc2ccc([N+](=O)[O-])cc2)ccc1O.[Na+] [Mordant Orange 1]
effect of accelerating sarcosine detection reaction [1]: effect of accelerating sarcosine detection reaction
Degree of progression of reaction (%) after 7.5 minutes [1]: 67%
Degree of progression of reaction (%) after 10 minutes [1]: 88%
ΔA9 min [2]: 0.049
ΔA10 min [2]: 0.051

O=C(O)c1cc(N=Nc2ccc3cc(S(=O)(=O)O)ccc3c2)ccc1O.[Na] [Chrome Yellow]
effect of accelerating sarcosine detection reaction [1]: effect of accelerating sarcosine detection reaction
Degree of progression of reaction (%) after 7.5 minutes [1]: 65%
Degree of progression of reaction (%) after 10 minutes [1]: 87%
ΔA9 min [2]: 0.066
ΔA10 min [2]: 0.067

Acid Red 151
effect of accelerating sarcosine detection reaction [1]: effect of accelerating sarcosine detection reaction
Degree of progression of reaction (%) after 7.5 minutes [1]: 68%
Degree of progression of reaction (%) after 10 minutes [1]: 89%
